The term inhibition in vivo denotes the change of the read-out against control, counted positive when it falls. The term clearance denotes a measure of how efficiently the substance is removed, as volume per time. Low values mean inefficient removal, high ones efficient removal. In general, EC50 refers to the midpoint of the concentration-response curve. Low readings indicate a more potent agent, high ones a less potent agent. The term half-life denotes how long it takes for the measured level to halve. The term bioavailability denotes dose-corrected exposure relative to a reference, in per cent. For orientation: Ki means the dissociation constant of the complex between target and ligand, obtained from inhibition or displacement. High values mean lower affinity, low ones higher affinity. Usually Tmax stands for the time at which the peak concentration occurs. A word on the AUC: it is concentration integrated over time. Read a high AUC as high exposure.

The values that follow come from ChEMBL document CHEMBL2203203, “Structure-activity relationships of 2-arylamido-5,7-dihydro-4H-thieno[2,3-c]pyran-3-carboxamide derivatives as cannabinoid receptor agonists and their analgesic action” (Bioorg Med Chem Lett, 2012).

Active and inactive are the calls of the source.

One data set deals with Mus musculus. The data set can be described thus: Analgesic activity in NMRI mouse assessed as inhibition of acetic acid-induced writhing at 30 mg/kg, po measured for 30 mins relative to vehicle-treated control. Format: functional. Particulars: 0.5 h. On the technique in general: Writhing tests count abdominal constrictions after an irritant is injected.
The species named for another data set is Homo sapiens. Put plainly: Selectivity ratio of EC50 for human CB1 receptor to EC50 for human CB2 receptor.
A short description of data set [1]: Clearance in rat at 1 mg/kg, iv. Type of data set: ADME, organism-based. Also noted: dose 1 mg/kg, route intravenous. The note with it: in vivo.
Data set [2] deals with T1, Cannabinoid receptor 2 (Homo sapiens, UniProt P34972). The data set can be described thus: Agonist activity at human CB2 receptor after 4 hrs by luciferase reporter gene assay. Type of data set: functional. In general terms: Reporter assays use an easily measured gene product as a stand-in for the process of interest.
T1 sequence (P34972 whole entry): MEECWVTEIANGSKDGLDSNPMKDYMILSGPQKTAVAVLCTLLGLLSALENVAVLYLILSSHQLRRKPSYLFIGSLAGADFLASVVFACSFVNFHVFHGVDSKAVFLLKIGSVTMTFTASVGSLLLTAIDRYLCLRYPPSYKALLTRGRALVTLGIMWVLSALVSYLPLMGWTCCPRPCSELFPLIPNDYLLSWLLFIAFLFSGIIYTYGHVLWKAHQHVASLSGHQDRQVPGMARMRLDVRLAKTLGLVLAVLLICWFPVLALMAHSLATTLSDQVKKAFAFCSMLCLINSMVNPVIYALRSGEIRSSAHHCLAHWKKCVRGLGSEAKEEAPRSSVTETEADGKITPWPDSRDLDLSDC
Data set [3] concerns the target T2, Cannabinoid receptor 1 (Homo sapiens, UniProt P21554). Put plainly: Agonist activity at human CB1 receptor after 4 hrs by luciferase reporter gene assay relative to control. Type of data set: functional.
A short description of data set [4]: Half life in rat at 1 mg/kg, iv. Format: ADME, organism-based. Also noted: dose 1 mg/kg, route intravenous. Particulars: in vivo.
Data set [5] has as its system Rattus norvegicus. Put plainly: Analgesic activity in carrageenan-induced Sprague-Dawley rat allodynia model assessed as increase in paw withdrawal threshold at 30 to 100 mg/kg, po after 30 mins. Type of data set: functional, organism-based.
Data set [6] is described as follows: Oral bioavailability in rat at 3 mg/kg. Type of data set: ADME, organism-based. Particulars: in vivo.
For data set [7], the system named is Rattus norvegicus. The data set can be described thus: Analgesic activity in carrageenan-induced Sprague-Dawley rat allodynia model assessed as increase in paw withdrawal threshold at 10 to 30 mg/kg, po after 90 mins. Type of data set: functional, organism-based.
Data set [8] in a line: Volume of distribution at steady state in rat at 1 mg/kg, iv. Type of data set: ADME, organism-based. On the set-up: dose 1 mg/kg, route intravenous. The note with it: in vivo, read-out: Vdss.
Data set [9] deals with Cannabinoid receptor 1 (Rattus norvegicus, UniProt P20272). Put plainly: Displacement of [3H]-CP55,940 from rat CB1 receptor after 60 mins by microscintillation counting analysis.
Cannabinoid receptor 1 (Rattus norvegicus, UniProt P20272), sequence (P20272 whole entry): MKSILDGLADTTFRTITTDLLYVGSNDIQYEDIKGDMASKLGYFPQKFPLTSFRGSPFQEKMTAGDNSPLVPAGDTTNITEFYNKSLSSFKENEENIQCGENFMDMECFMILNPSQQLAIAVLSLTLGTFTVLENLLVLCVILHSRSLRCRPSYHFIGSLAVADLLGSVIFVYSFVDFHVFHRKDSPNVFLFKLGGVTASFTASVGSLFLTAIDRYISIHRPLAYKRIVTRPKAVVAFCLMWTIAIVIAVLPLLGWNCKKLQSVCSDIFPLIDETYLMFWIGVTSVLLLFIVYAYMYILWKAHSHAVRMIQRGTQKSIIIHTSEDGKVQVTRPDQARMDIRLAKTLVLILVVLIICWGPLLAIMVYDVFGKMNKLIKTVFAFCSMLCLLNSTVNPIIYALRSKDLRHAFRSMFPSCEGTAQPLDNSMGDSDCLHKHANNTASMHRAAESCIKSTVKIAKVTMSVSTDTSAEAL
Data set [10] has as its target T3, Cannabinoid receptor 2 (Rattus norvegicus, UniProt Q9QZN9).
T3 sequence (Q9QZN9 whole entry): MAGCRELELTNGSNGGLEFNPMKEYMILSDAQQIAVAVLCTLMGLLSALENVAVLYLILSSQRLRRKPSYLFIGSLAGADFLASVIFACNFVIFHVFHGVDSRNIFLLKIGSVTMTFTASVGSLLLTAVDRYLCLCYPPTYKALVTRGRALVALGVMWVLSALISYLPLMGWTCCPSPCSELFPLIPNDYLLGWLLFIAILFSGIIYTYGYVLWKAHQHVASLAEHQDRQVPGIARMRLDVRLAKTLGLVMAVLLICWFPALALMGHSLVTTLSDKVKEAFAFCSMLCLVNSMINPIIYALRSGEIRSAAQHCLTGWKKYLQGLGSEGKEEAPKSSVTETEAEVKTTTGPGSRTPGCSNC
The data set can be described thus: Displacement of [3H]-CP55,940 from rat CB2 receptor after 60 mins by microscintillation counting analysis. (In general: Displacement assays read how much labelled ligand stays bound in the presence of the test substance.)

Data set [11] in a line: Half life in rat liver microsomes. Type of data set: ADME, Microsome.
A short description of data set [12]: Tmax in rat at 3 mg/kg, po. On the set-up: dose 3 mg/kg, route oral. Format: ADME, organism-based. The note with it: in vivo.
The target of data set [13] is T1, Cannabinoid receptor 2. Put plainly: Displacement of [3H]-CP55,940 from human CB2 receptor after 60 mins by microscintillation counting analysis.
Data set [14] deals with T1, Cannabinoid receptor 2. Put plainly: Agonist activity at human CB2 receptor after 4 hrs by luciferase reporter gene assay relative to control. Type of data set: functional.
Data set [15] in a line: Half life in rat at 3 mg/kg, po. Format: ADME, organism-based. On the set-up: dose 3 mg/kg, route oral. The note with it: in vivo.
Data set [16] can be described thus: Half life in mouse liver microsomes. Type of data set: ADME, Microsome.
In data set [17] the test system is Rattus norvegicus. Put plainly: Analgesic activity in carrageenan-induced Sprague-Dawley rat allodynia model assessed as effect on paw withdrawal threshold at 10 mg/kg, po after 30 mins. Type of data set: functional, organism-based. Also noted: dose 10 mg/kg.
In data set [18] the target is T2, Cannabinoid receptor 1. Put plainly: Displacement of [3H]-CP55,940 from human CB1 receptor after 60 mins by microscintillation counting analysis.
The nature of data set [19]: AUC in rat at 1 mg/kg, iv. Type of data set: ADME, organism-based. Also noted: dose 1 mg/kg, route intravenous. Particulars: plasma.
Data set [20] concerns the target T2, Cannabinoid receptor 1. Put plainly: Agonist activity at human CB1 receptor after 4 hrs by luciferase reporter gene assay. Format: functional.
The nature of data set [21]: Half life in human liver microsomes. Type of data set: ADME, Microsome.
The target of data set [22] is Cannabinoid receptor 2 (Mus musculus) (UniProt P47936). Put plainly: Agonist activity at mouse CB2 receptor after 4 hrs by luciferase reporter gene assay relative to control. Type of data set: functional.
Cannabinoid receptor 2 (Mus musculus), sequence (P47936 whole entry): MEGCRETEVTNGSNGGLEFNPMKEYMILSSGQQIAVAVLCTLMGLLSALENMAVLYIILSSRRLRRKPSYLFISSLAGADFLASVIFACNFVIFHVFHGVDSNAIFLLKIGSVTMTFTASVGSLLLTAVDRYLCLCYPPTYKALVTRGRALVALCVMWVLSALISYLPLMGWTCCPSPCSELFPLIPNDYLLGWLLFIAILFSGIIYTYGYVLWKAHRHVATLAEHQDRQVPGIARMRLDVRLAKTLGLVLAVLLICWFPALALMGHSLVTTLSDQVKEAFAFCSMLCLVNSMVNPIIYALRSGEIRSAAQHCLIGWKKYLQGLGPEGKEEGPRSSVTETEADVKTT
Data set [23] concerns the target Cannabinoid receptor 2 (Mus musculus, UniProt P47936). Put plainly: Agonist activity at mouse CB2 receptor after 4 hrs by luciferase reporter gene assay. Type of data set: functional.

T2 sequence (P21554 whole entry): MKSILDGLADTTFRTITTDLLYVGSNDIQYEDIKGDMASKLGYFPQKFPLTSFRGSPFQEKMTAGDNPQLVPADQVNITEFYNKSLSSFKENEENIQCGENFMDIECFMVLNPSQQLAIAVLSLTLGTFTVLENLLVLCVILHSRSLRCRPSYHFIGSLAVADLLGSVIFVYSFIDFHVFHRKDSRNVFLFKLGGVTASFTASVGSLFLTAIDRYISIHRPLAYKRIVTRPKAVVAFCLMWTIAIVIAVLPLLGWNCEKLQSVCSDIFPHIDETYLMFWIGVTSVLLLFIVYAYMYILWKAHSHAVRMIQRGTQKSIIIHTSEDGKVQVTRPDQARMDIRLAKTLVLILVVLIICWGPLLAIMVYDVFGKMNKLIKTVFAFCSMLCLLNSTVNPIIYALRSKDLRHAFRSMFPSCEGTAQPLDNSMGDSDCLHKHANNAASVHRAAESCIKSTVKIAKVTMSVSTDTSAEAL
Cannabinoid receptor 2 (Mus musculus, UniProt P47936), sequence (P47936 whole entry): as the sequence (P47936 whole entry) above

With `O=C(Nc1sc2c(c1C(=O)N1CC(F)(F)C1)CCOC2)c1c(F)cccc1C(F)(F)F`, the inhibition in vivo at 30 mg/kg with Mus musculus is 38%. In addition, the Ratio EC50 in the data set filed under Homo sapiens stood at 122. The molecule further showed a clearance in [1] of 102 mL/min/kg. Moreover, the figures for the EC50 at Cannabinoid receptor 2 [2] and on Cannabinoid receptor 1 [20] were 6.5 nM and 798 nM, respectively. For the same molecule, the Efficacy at Cannabinoid receptor 1 [3] came out at 83%; on Cannabinoid receptor 2 [14] it was 96%. The half-life in data set [4] is 30 min; in data set [11], 14.2 min; in data set [15], 534 min; in data set [16], 51.3 min; in [21], 25.4 min. Moreover, the result in the data set on Rattus norvegicus [5] and in the data set with Rattus norvegicus [7] was Active. This molecule registered a bioavailability in [6] of 8%. The Vd in data set [8] was 3.61 L/kg. The Ki amounted to 13500 nM at Cannabinoid receptor 1 [9], 630 nM at Cannabinoid receptor 2 [10], 444 nM on Cannabinoid receptor 2 [13] and 11100 nM at Cannabinoid receptor 1 [18]. In addition, in [12], the Tmax came out at 60 min. Also, the outcome with Rattus norvegicus [17] was inactive. Also, the AUC in data set [19] came to 165 ng·h/mL.

As to `O=C(Nc1sc2c(c1C(=O)N1CCOCC1)CCCC2)c1ccccc1Cl`, the Ratio EC50 in the data set listed under Homo sapiens amounted to 25. Further, the half-maximal effective concentration (EC50) on Cannabinoid receptor 2 [2] turned out to be 10 nM; on Cannabinoid receptor 1 [20], 251 nM; at Cannabinoid receptor 2 [23], 50 nM. In addition, the Efficacy stood at 77% on Cannabinoid receptor 1 [3], 107% in data set [22] and 95% on Cannabinoid receptor 2 [14].
